Consider one compound from patent US20150031760A1, “PHARMACEUTICAL COMPOSITION FOR PREVENTING OR TREATING NERVOUS SYSTEM DISORDERS COMPRISING SULFURETIN OR PHARMACEUTICALLY ACCEPTABLE SALT THEREOF” (Research and Business Foundation SUNGKYUNKWAN UNIVERSITY, priority 2010, published 2015).

Holding throughout (type): cell-based, human
In assay [1] the test system is SH-SY5Y cells. Nature of the assay: Inhibition of intracellular [Ca2+] influx (Fura-2-AM fluorescence). The settings on record: hydrogen peroxide-induced, 30 minutes pretreatment. How it is done: (§1) The incubator was maintained at a temperature of 37° C., and a mixed gas of 95% air and 5% CO2 was continuously supplied thereto to provide suitable conditions for cell culture. The cells were cultured in a 6-well plate or a 96-well plate at each of densities of 1×10^6 and 2×10^4 cells/well 24 hours before the experiment. […] Sulfuretin was used in ethanol and used at a final concentration of 0.1% or less.
In order to measure inhibitory effects on intracellular [Ca^2+] influx caused by oxidative stress, cells were labeled with Fura-2-AM fluorescence, and quantitative analysis was carried out using a fluorescence meter. Specifically, 10 μl of 5 μM Fura-2-AM was added to each well of the 6-well plate (in which the cells have been cultured) and then allowed to react for 30 minutes. Herein, Fura-2-AM in the incubator was covered with a silver foil such that it would not be exposed to light. After completion of the incubation, the plate was pretreated with sulfuretin for 30 minutes, and then reacted with hydrogen peroxide for 30 minutes to induce the intracellular influx of [Ca^2+]. Then, the cells that reacted with the Fura-2-AM fluorescent substance were washed twice with cold HEPES and detached with HEPES. Then, the cells were centrifuged at 400 g for 3 minutes. The supernatant was removed carefully, stirred weakly with 0.5 ml of HEPES buffer, and then 150 μl was dispensed into each well of a fresh 96-well plate. The fluorescence of the sample dispensed into the fresh 96-well plate was measured at an excitation wavelength of […] and an emission wavelength of 520 nm using a fluorescence meter (Perkinelmer, USA).
The measured value was substituted into the following equation to calculate intracellular [Ca^2+] nM: […]

The test system of assay [2] is SH-SY5Y cells. Nature of the assay: Inhibition of mitochondrial membrane potential (MMP) damage (rhodamine-123). The settings on record: hydrogen peroxide-induced damage, 30 minutes pretreatment. How it is done:
as §1
In order to measure the inhibition of MMP damage, cells were labeled with rhodamine-123 fluorescence, and quantitative analysis was performed using a fluorescence meter. Specifically, the 6-well plate in which the cells have been cultured was pretreated with sulfuretin for 30 minutes and then reacted with hydrogen peroxide for 30 minutes to induce MMP damage. Then, 10 μl of 10 μM rhodamine-123 was added to each well of the plate and allowed to react for 30 minutes. Herein, rhodamine-123 in the incubator was covered with a silver foil such that it would not be exposed to light. The cells that reacted with the rhodamine-123 fluorescent substance were detached with cold PBS and centrifuged at 400 g for 3 minutes. The centrifugation process was repeated twice to wash the fluorescent substance. The washed cells were stirred briefly with 0.5 ml of PBS, and 100 μl was dispensed into each well of a fresh 96-well plate. The fluorescence of the cells was measured at an excitation wavelength of 480 nm and an emission wavelength of 530 nm using a fluorescence meter (Perkinelmer, USA).
The measured fluorescence was substituted into the following equation to calculate ΔΨm:
ΔΨm(%)=[(O.D. of control−O.D. of test group)/O.D. of control]×100

Another assay has as its system β-CTF. Kind of assay: Western blot, β-CTF level. The settings on record: Swedish APP mutant SH-SY5Y cells; sulfuretin 2.5, 5, 10 and 20 μM for 24 h; dose-dependent (p<0.001). How it is done:
For the experiments shown in FIGS. 11 to 13, SH-SY5Y and stable swedish APP mutant SH-SY5Y cells were grown in DMEM supplemented with 10% heat-inactivated FBS and 0.1% penicillin/streptomycin at 37° C. in a humidified atmosphere of 5% CO2 and 95% air. Cells were fed every three days and sub-cultured once they reached 80-90% confluency in […] cell culture dishes. Amyloid beta25-35 was prepared as a 20 mM stock immediately before use and diluted in PBS to the indicated final concentration. Prior to use, amyloid beta25-35 was dissolved in sterilized distilled water and was aggregated at 37° C. for five days. The test compounds were dissolved in DMSO and the stock solutions were added directly to the culture media to a final concentration of 0.1% (v/v) DMSO.
SH-SY5Y and stable swedish APP mutant SH-SY5Y cells (1×10^6 cells/well in 6-well plates) were incubated at 37° C. with or without 20 μM amyloid beta 25-35 for 6 or 24 h, with or without sulfuretin pretreatment, and then washed and harvested with ice-cold PBS and centrifuged at 400×g for 3 minutes. […] The protein concentration was determined using a protein assay kit (Thermo Scientific). […] Protein bands were quantified by densitometric analysis using Image Gauge 4.0 software (Fujifilm, Stamford, Conn., USA). […]
On the technique in general: In western blotting, separated proteins are transferred to a membrane and probed.

Where only a bound is given, the exact number is not on record here.

For the compound `O=C1/C(=C/c2ccc(O)c(O)c2)Oc2cc(O)ccc21` [sulfuretin], the “intracellular [Ca2+] influx” value with SH-SY5Y cells [1] (sulfuretin 0.1 μg/ml) is no more than 566 nM; with SH-SY5Y cells [1] (sulfuretin 0.5 μg/ml), no more than 395 nM; with SH-SY5Y cells [1] (sulfuretin 1 μg/ml) it was no more than 371 nM; in the assay with SH-SY5Y cells [1] (sulfuretin 5 μg/ml), no more than 243 nM. In addition, the “MMP (ΔΨm)” value in the assay on SH-SY5Y cells [2] (sulfuretin 0.1 μg/ml) was no less than 56%; in the assay with SH-SY5Y cells [2] (sulfuretin 0.5 μg/ml), no less than 62%; in the assay with SH-SY5Y cells [2] (sulfuretin 1 μg/ml) it was no less than 91%; with SH-SY5Y cells [2] (sulfuretin 5 μg/ml) it was no less than 98%. Moreover, in the assay with β-CTF, the β-CTF level entry is given as “significantly inhibited”.
